Test results reported in ChEMBL document CHEMBL1201862, “PubChem BioAssay data set” (2004).
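Interpolation was linear, between the two tested concentrations surrounding the appropriate level; five concentrations were tested over 48 hours in 96-well plates. GI50 = concentration required for 50% inhibition of growth.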 The source made the active and inactive calls. Rule as the data show it: active = GI50 up to about 1.1 µM and inactive = higher.

Tests used:
Test in all cases: NCI tumour cell line growth inhibition, 48 h
NCI-H460 = test system: NCI-H460
MDA-N = test system: MDA-N
MCF7 = test system: MCF7
MDA-MB-435 = test system: MDA-MB-435
SF-539 = test system: SF-539
UACC-62 = test system: UACC-62
NCI-H226 = test system: NCI-H226
SK-OV-3 = test system: SK-OV-3
786-0 = test system: 786-0
HCC 2998 = test system: HCC 2998
NCI-H522 = test system: NCI-H522
RXF 393 = test system: RXF 393
CCRF-CEM = test system: CCRF-CEM
A498 = test system: A498
SNB-19 = test system: SNB-19
RPMI-8226 = test system: RPMI-8226
A549 = test system: A549
Hs-578T = test system: Hs-578T
SN12C = test system: SN12C
DU-145 = test system: DU-145
OVCAR-5 = test system: OVCAR-5
SNB-75 = test system: SNB-75
T47D = test system: T47D
OVCAR-8 = test system: OVCAR-8
SW-620 = test system: SW-620
MOLT-4 = test system: MOLT-4
EKVX = test system: EKVX
HOP-92 = test system: HOP-92
HL-60 = test system: HL-60
OVCAR-4 = test system: OVCAR-4
LOX IMVI = test system: LOX IMVI
UACC-257 = test system: UACC-257
UO-31 = test system: UO-31
HOP-62 = test system: HOP-62
Malme-3M = test system: Malme-3M
IGROV-1 = test system: IGROV-1
SF-268 = test system: SF-268
SK-MEL-2 = test system: SK-MEL-2
ACHN = test system: ACHN
HCT-116 = test system: HCT-116
SK-MEL-28 = test system: SK-MEL-28
NCI/ADR-RES = test system: NCI/ADR-RES
K562 = test system: K562
TK-10 = test system: TK-10
SK-MEL-5 = test system: SK-MEL-5
NCI-H23 = test system: NCI-H23
CAKI-1 = test system: CAKI-1
PC-3 = test system: PC-3
MDA-MB-231 = test system: MDA-MB-231
HT-29 = test system: HT-29
U-251 = test system: U-251
SF-295 = test system: SF-295
KM12 = test system: KM12
M14 = test system: M14
BT-549 = test system: BT-549
COLO 205 = test system: COLO 205
HCT-15 = test system: HCT-15
SR = test system: SR

Structure (SMILES): CCN1CCC(O)(c2ccc(Oc3ccc(Cl)cc3)cc2)C(C(=O)c2ccc(Oc3ccc(Cl)cc3)cc2)C1 (stereo not drawn)
- GI50 (NCI-H460): 3.76 µM (inactive)
- GI50 (MDA-N): 14 µM (inactive)
- GI50 (MCF7): 5.41 µM (inactive)
- GI50 (MDA-MB-435): 16.4 µM (inactive)
- GI50 (SF-539): 15.3 µM (inactive)
- GI50 (UACC-62): 12.2 µM (inactive)
- GI50 (NCI-H226): 15 µM (inactive)
- GI50 (SK-OV-3): 23.3 µM (inactive)
- GI50 (786-0): 3.55 µM (inactive)
- GI50 (HCC 2998): 12.5 µM (inactive)
- GI50 (NCI-H522): 2.83 µM (inactive)
- GI50 (RXF 393): 26.2 µM (inactive)
- GI50 (CCRF-CEM): 3.44 µM (inactive)
- GI50 (A498): 8.61 µM (inactive)
- GI50 (SNB-19): 14.5 µM (inactive)
- GI50 (RPMI-8226): 3.37 µM (inactive)
- GI50 (A549): 6.97 µM (inactive)
- GI50 (Hs-578T): 20.7 µM (inactive)
- GI50 (SN12C): 13.7 µM (inactive)
- GI50 (DU-145): 16.5 µM (inactive)
- GI50 (OVCAR-5): 13.5 µM (inactive)
- GI50 (SNB-75): 12.9 µM (inactive)
- GI50 (T47D): 14.7 µM (inactive)
- GI50 (OVCAR-8): 17.1 µM (inactive)
- GI50 (SW-620): 12.8 µM (inactive)
- GI50 (MOLT-4): 8.45 µM (inactive)
- GI50 (EKVX): 16.8 µM (inactive)
- GI50 (HOP-92): 7.16 µM (inactive)
- GI50 (HL-60): 1.8 µM (inactive)
- GI50 (OVCAR-4): 14.3 µM (inactive)
- GI50 (LOX IMVI): 3.78 µM (inactive)
- GI50 (UACC-257): 13.3 µM (inactive)
- GI50 (UO-31): 13.6 µM (inactive)
- GI50 (HOP-62): 9.48 µM (inactive)
- GI50 (Malme-3M): 17.2 µM (inactive)
- GI50 (IGROV-1): 8.38 µM (inactive)
- GI50 (SF-268): 17.8 µM (inactive)
- GI50 (SK-MEL-2): 21.9 µM (inactive)
- GI50 (ACHN): 14 µM (inactive)
- GI50 (HCT-116): 3.78 µM (inactive)
- GI50 (SK-MEL-28): 20.5 µM (inactive)
- GI50 (NCI/ADR-RES): 17.3 µM (inactive)
- GI50 (K562): 5.28 µM (inactive)
- GI50 (TK-10): 10.6 µM (inactive)
- GI50 (SK-MEL-5): 12.2 µM (inactive)
- GI50 (NCI-H23): 11.7 µM (inactive)
- GI50 (CAKI-1): 14.3 µM (inactive)
- GI50 (PC-3): 9.57 µM (inactive)
- GI50 (MDA-MB-231): 14.7 µM (inactive)
- GI50 (HT-29): 5.07 µM (inactive)
- GI50 (U-251): > 10 µM (inactive)
- GI50 (SF-295): 12.4 µM (inactive)
- GI50 (KM12): 2.56 µM (inactive)
- GI50 (M14): 14 µM (inactive)
- GI50 (BT-549): 14.5 µM (inactive)
- GI50 (COLO 205): 13.2 µM (inactive)
- GI50 (HCT-15): 7.35 µM
- GI50 (SR): 3.48 µM (inactive)
